Read-outs that look alike come from different tables or passages of the source.
Key:
GPR88 KO and WT mice [1] = test: Phencyclidine-stimulated locomotor hyperactivity; type: in vivo
[2] = biological target: T1, striatal dopamine D2 receptors (Mus musculus, UniProt P61168); test: [3H]spiperone binding to striatal membrane preparations; set-up: species or system mice
T1 construct: from tissue; host or cells: mouse striatum (WT and GPR88 knockout mice), membrane preparation
Procedure: Striata from 10 mice (male and female, WT & GPR88 KO) were pooled and homogenized in a motor-driven POLYTRON™ homogenizer (Kinematica AG, Newark, N.J.) at setting six for 10 seconds in 3 mL per 100 mg of wet tissue in 50 mM Tris-HCl buffer, pH 7.4, containing 120 mM NaCl, 5 mM KCl, 1.5 mM CaCl2, 4 mM MgCl2, and 1 mM EDTA. […] The binding of each concentration of radioligand was determined in duplicate. Incubations were carried out at room temperature for 120 minutes. The final concentration of the membrane protein in each binding assay was approximately 70 μg/ml. Butaclamol (+), (10 μM), (Sigma-Aldrich, St. Louis, Mo.) was used to define the nonspecific binding. The incubations were terminated by rapid filtration using a Wallac Tomtec harvester (Waltham, Mass.) and buffer-presoaked glass fiber filter mats (GF/B, Whatman Inc. Florham Park, N.J.). […] The radioactivity of the filters was then counted in a Wallac 1205 scintillation counter (Perkin Elmer Life and Analytical Sciences).
The estimates of Bmax (the number of available binding receptors) and Kd (the dissociation constant) were calculated by fitting the specific binding data with nonlinear regression using GraphPad PRISM™ data analysis software (GraphPad Software, San Diego, Calif.).

GPR88 KO and WT mice [3] = test: Amphetamine-stimulated locomotor hyperactivity; type: in vivo; conditions: 3 mg/kg i.p.
Procedure: The amphetamine-stimulated locomotor hyperactivity assay is another type of assay to model the neuropathological states in schizophrenia, similar to the hyperdopaminergia in the ventral striatum. To measure spontaneous activity and amphetamine-stimulated locomotor hyperactivity, the mice were individually placed in Opto-Veramax-3 monitor cages (Columbus Instruments, Columbus, Ohio) and allowed to habituate for 30 minutes with room light and white noise on. After habituation, each mouse was injected with amphetamine (AMPH, 3 mg/kg) in the intraperitoneum. During the first 30 minutes, the spontaneous activity was recorded every 10 minutes. After amphetamine administration, amphetamine-stimulated locomotor hyperactivity was measured every 10 minutes over a 60 minutes time span by the activity monitor. Accuscan Versamax and Versadat software (Columbus Instruments, Columbus, Ohio) were used to convert the infrared beam breaks into horizontal activity counts. […] Males and females were analyzed separately.

GPR88 KO and WT mice [4] = test: In vivo striatal microdialysis, extracellular dopamine after amphetamine; conditions: 3 mg/kg i.p.; both genotypes, males and females
Procedure: Chromatographic separations were performed using a Capcell PAK™, Strong Cation Exchange columns (5 μm UG80, 1.5×150 mm; Shiseido, Phenomenex, USA). The mobile phase comprised (mM) 13 Na2HPO4, 87 NaH2PO4, 0.1 EDTA and 20% methanol, was adjusted to pH 6 and delivered at 0.2 ml/minutes at 40° C.

GPR88 KO and WT mice [5] = test: Apomorphine-induced climbing and stereotypy; type: in vivo
Procedure: (§1) The GPR88 KO and WT mice were acclimated to a wire cage (cylindrical ½″×½″ mesh with the dimensions of 4½″ d×5½″ h) for at least 2 hours before testing to allow proper habituation. […] (+ present, − absent). Readings were repeated every 5 minutes during a 30-minute test session.
The behavioral assessment was conducted over three conditions in succession: (1) an evaluation of the response to a subcutaneous vehicle (0.25% TWEEN® 80) injection to establish a baseline; (2) followed by an evaluation of the response to a dose of 0.3 mg/kg subcutaneous apomorphine injection; (3) followed by an evaluation of the response to 1 mg/kg subcutaneous apomorphine injection. Behavioral observation began 5 minutes after each injection. Vehicle was given at T0 minutes with observational assessment from T5-T35 minutes and habituation followed from T35-T65 minutes.
At T65, the 0.3 mg/kg dose of apomorphine was administered. Behavioral observation for the 0.3 mg/kg dose of apomorphine was from T70-T100, followed by another habituation from T100-T130 minutes.
At T130 min, the 1.0 mg/kg dose of apomorphine was administered and then the mice were scored from T135-T165 min. For each subject, the climbing scores were totaled for each observational period (maximum=12 per animal). Stereotypy scores were also summed up (maximum=6 per animal). […] Males and females were analyzed separately.

GPR88 KO and WT mice [6] = test: Antipsychotic block of apomorphine-induced climbing and stereotypy; type: in vivo; conditions: for minimal effective dose (MED), block of apomorphine-induced climbing / minimal effective dose (MED), block of apomorphine-induced stereotypy: i.p. 30 minutes before apomorphine 0.54 mg/kg
Procedure: as §1
Observation and scoring for climbing and stereotypy were performed as described in Example 6. […] Males and females were analyzed separately. […] For graphical representation, the data was normalized to the amount of climbing and stereotypy shown by the vehicle treated control group.

GPR88 KO and WT mice [7] = test: Haloperidol-induced catalepsy; conditions: 1 mg/kg i.p.; for percentage of maximum catalepsy over time: 30, 60, 90, 120 minutes
Procedure: Thirty, 60, 90, and 120 minutes following drug administration, the animal's forelimbs were draped over a thin horizontal rod 1¼″ high. The amount of time in seconds for which the animal maintained this awkward posture was recorded (60 seconds was maximum). Maintenance of this position was considered catalepsy. Animals that appeared to be sedated or had loss of muscle tone were checked for a righting reflex. Those mice that could not right themselves when placed on their backs were eliminated from the study. Mean time spent in the catalepsy position for the dose at each time was expressed as a percentage of maximum possible catalepsy. During the study's four time periods, the number of seconds with maintenance of the catalepsy position was recorded for each animal. Data was subjected to repeated-measures ANOVA followed by post-hoc analysis of least squares means. Males and females were analyzed separately.

GPR88 KO and WT mice [8] = conditions: for percentage prepulse inhibition (PPI), treatment effect: 0.54 mg/kg i.p. 30 minutes before testing, vs vehicle
Procedure: To detect potential phenotypic deficits in the GPR88 knockout mice, they were first evaluated for startle habituation. In brief, mice were tested using the SR-LAB (San Diego Instruments, San Diego, Calif.) system. Each system consists of a ventilated sound attenuated chamber containing a stabilimeter consisting of a Plexiglas cylinder (12.5 cm length, 3.5 cm diameter) mounted on a Plexiglas frame. Acoustic stimuli were delivered through a speaker mounted in the enclosure ceiling, that was 27 cm above the cylinder. Startle responses were transduced by a piezoelectric accelerometer mounted beneath the frame. Output signals were digitized and rectified as consecutive 1-millisecond (msec) readings (a total of 65 were recorded, and startle response was expressed as an averaged response across these samples) on a computer using the San Diego Instrument software. Mice were placed individually in the chamber for a 5-minute acclimation period at a background noise level of 64 dB.
Prepulse inhibition was measured immediately following the startle sensitivity test. Five different trial tests were used in studying prepulse inhibition and were performed in a pseudorandom order. These trial tests included (1) a no stimulus trial (64 dB background noise to determine basal activity), a pulse alone trial (118 dB, 40 ms duration), and three 20 ms prepulses at either 69, 76, or 84 dB intensities paired (100 ms, onset to onset) with the 118 dB pulse. […] Percentage prepulse inhibition was calculated as 100 minus the ratio of the average startle response observed at each prepulse+pulse trial relative to the pulse alone stimulus, times 100. The percentage prepulse at across dB levels was analyzed by repeated-measures ANOVA. […] Males and females were analyzed separately. […]
The PPI was averaged across the 3 dB levels and analyzed by a two-way ANOVA with genotype and treatment as the factors followed by a post hoc analysis of least square means. Males and females were again analyzed separately.

[9] = female GPR88 KO and WT mice, 1 mg/kg s.c.
[10] = GPR88 KO and WT female mice, 0.3 mg/kg
[11] = male WT mice, 0.54 and 1.0 mg/kg

T1 sequence (P61168 whole entry): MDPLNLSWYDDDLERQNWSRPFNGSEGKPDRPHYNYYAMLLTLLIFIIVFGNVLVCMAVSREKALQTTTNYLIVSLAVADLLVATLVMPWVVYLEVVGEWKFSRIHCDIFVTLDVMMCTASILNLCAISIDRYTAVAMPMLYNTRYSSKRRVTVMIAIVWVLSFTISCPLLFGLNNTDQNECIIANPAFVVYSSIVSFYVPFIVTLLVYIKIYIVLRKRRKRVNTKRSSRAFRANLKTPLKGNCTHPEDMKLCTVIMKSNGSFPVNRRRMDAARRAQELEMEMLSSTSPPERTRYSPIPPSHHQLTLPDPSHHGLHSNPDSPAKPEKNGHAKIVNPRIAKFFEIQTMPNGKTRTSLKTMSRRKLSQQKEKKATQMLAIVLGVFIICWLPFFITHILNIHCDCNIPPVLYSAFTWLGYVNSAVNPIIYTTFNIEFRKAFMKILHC

## c1ccc(C2(N3CCCCC3)CCCCC2)cc1 [PCP, phencyclidine]
GPR88 KO and WT mice [1]; female WT and GPR88 KO mice, 1.0 mg/kg
  locomotor activity after administration: Neither of the genotypes responded
GPR88 KO and WT mice [1]; female WT and GPR88 KO mice, 1.7 mg/kg or 3.0 mg/kg
  locomotor activity after administration: increased locomotor activity
GPR88 KO and WT mice [1]; female mice
  locomotor activation (total distance traveled), KO compared with WT: increased sensitivity for locomotor activation
GPR88 KO and WT mice [1]; male WT and GPR88 KO mice, 3 mg/kg i.p.
  locomotor activity after administration: increased locomotor activity
GPR88 KO and WT mice [1]; male WT and GPR88 KO mice, lower doses (1.0, 1.7 mg/kg)
  locomotor activity after administration: Neither of the genotypes responded
GPR88 KO and WT mice [1]; male mice
  locomotor activation (total distance traveled), KO compared with WT: increased sensitivity for locomotor activation

## O=C(CCCN1CCC2(CC1)C(=O)NCN2c1ccccc1)c1ccc(F)cc1 [[^3H]spiperone]
[2]; striatal membranes of GPR88 KO mice
  Bmax (the number of available binding receptors): 1.83 pmol/mg
[2]; striatal membranes of WT mice
  Bmax (the number of available binding receptors): 1.34 pmoles/mg protein

## CC(N)Cc1ccccc1 (centres unmarked) [amphetamine]
GPR88 KO and WT mice [3]; female mice, 40-90 min
  locomotor activity after administration: significant increase in activity
  locomotor activity, KO compared with WT: more hyperactivity overall
GPR88 KO and WT mice [3]; male mice (GPR88 KO), 40-90 min
  locomotor activity after administration: significant increase in activity
GPR88 KO and WT mice [3]; male mice
  locomotor activity, KO compared with WT: greater increase in activity up to the 50 minute time point
GPR88 KO and WT mice [4]
  striatal extracellular dopamine after administration: significant and equal increase in dopamine

## CN1CCc2cccc3c2[C@H]1Cc1ccc(O)c(O)c1-3 [apomorphine]
GPR88 KO and WT mice [5]; apomorphine-induced
  average increase in climbing scores of GPR88 KO mice over the wild type mice: 227%
  average increase in stereotypy scores of GPR88 KO mice over the wild type mice: 129%
GPR88 KO and WT mice [5]; [9]
  climbing, dose effect: the most climbing
  stereotypy, dose effect: the most stereotypy
GPR88 KO and WT mice [5]; female mice, 0.3 mg/kg s.c.
  climbing scores, KO compared with WT: higher climbing scores
  stereotypy, KO compared with WT: more stereotypy
GPR88 KO and WT mice [5]; female mice, 1 mg/kg s.c.
  climbing, KO compared with WT: equivalent
GPR88 KO and WT mice [5]; male GPR88 KO and WT mice, 1 mg/kg s.c.
  stereotypy scores, dose effect: maximal stereotypy
GPR88 KO and WT mice [5]; male GPR88 KO and WT mice, vehicle, 0.3 and 1 mg/kg s.c.
  climbing scores, dose effect: climbing increasing with the dose of apomorphine
GPR88 KO and WT mice [5]; male mice, 0.3 mg/kg s.c.
  climbing scores, KO compared with WT: higher climbing scores
  stereotypy, KO compared with WT: more stereotypy
GPR88 KO and WT mice [5]; male mice, 1 mg/kg s.c.
  climbing, KO compared with WT: equivalent
  stereotypy, KO compared with WT: equivalent

## O=C(CCCN1CCC(O)(c2ccc(Cl)cc2)CC1)c1ccc(F)cc1 [haloperidol]
GPR88 KO and WT mice [6]; [10]
  block of apomorphine-induced climbing: full block of climbing
  block of apomorphine-induced stereotypy: full block of stereotypy
GPR88 KO and WT mice [6]; male GPR88 KO mice
  dose required to produce a full block of climbing: 1.0 mg/kg
  minimal effective dose, apomorphine-induced climbing and stereotypy (summary): 0.54 mg/kg
  minimal effective dose (MED), block of apomorphine-induced climbing: 0.54 mg/kg
  minimal effective dose (MED), block of apomorphine-induced stereotypy: 0.54 mg/kg
GPR88 KO and WT mice [6]; male GPR88 KO mice, 1.0 mg/kg
  block of apomorphine-induced stereotypy: 50%
GPR88 KO and WT mice [6]; male WT mice
  minimal effective dose, apomorphine-induced climbing and stereotypy (summary): < 0.3 mg/kg
  minimal effective dose (MED), block of apomorphine-induced climbing: less than or equal to 0.3 mg/kg
  minimal effective dose (MED), block of apomorphine-induced stereotypy: less than or equal to 0.3 mg/kg
GPR88 KO and WT mice [6]; [11]
  block of apomorphine-induced climbing: full block of climbing
  block of apomorphine-induced stereotypy: full block of stereotypy
GPR88 KO and WT mice [7]; GPR88 KO and WT male mice
  percentage of maximum catalepsy over time: percentage of maximum catalepsy increasing to the 120 minute test point
GPR88 KO and WT mice [7]; female mice
  percentage of maximum catalepsy over time: percentage of maximum catalepsy increasing to the 120 minute test point
GPR88 KO and WT mice [7]; male and female mice
  level of catalepsy, GPR88 KO compared with WT: equivalent levels of catalepsy

## Cc1nc2n(c(=O)c1CCN1CCC(c3noc4cc(F)ccc34)CC1)CCCC2 [risperidone]
GPR88 KO and WT mice [8]; GPR88 KO mice, summary statement
  deficit in PPI of GPR88 KO mice upon treatment: normalized
GPR88 KO and WT mice [8]; male GPR88 KO mice
  percentage prepulse inhibition (PPI), treatment effect: significant treatment effect
GPR88 KO and WT mice [8]; male WT mice
  percentage prepulse inhibition (PPI), treatment effect: significant treatment effect
